Measurements from patent publication EP2758401B1 (Bayer Intellectual Property GmbH, priority 2011, dated 2013).

What was measured:
MKNK1 [1] = target: T1, MKNK1 (Homo sapiens, UniProt Q9BUB5, T385D); experiment: MKNK1 kinase assay (TR-FRET); format: biochemical; conditions: ATP final conc. 10 µM; 15 min pre-incubation; reaction time 45 min at 22°C
T1 construct: GST (N); purchased Carna Biosciences 02-145; host or cells: insect cells (baculovirus expression system)
Experimental: MKNK1-inhibitory activity of compounds of the present invention was quantified employing the MKNK1 TR-FRET assay as described in the following paragraphs.
As substrate for the kinase reaction the biotinylated peptide biotin-Ahx-[…] (C-terminus in amide form) was used which can be purchased e.g. form the company Biosyntan (Berlin-Buch, Germany).
For the assay 50 nL of a 100fold concentrated solution of the test compound in DMSO was pipetted into a black low volume 384well microtiter plate (Greiner Bio-One, Frickenhausen, Germany), 2 µL of a solution of MKNK1 in aqueous assay buffer [50 mM HEPES pH 7.5, 5 mM magnesium chloride, 1.0 mM dithiothreitol, 0.005% (v/v) Nonidet-P40 (Sigma)] was added and the mixture was incubated for 15 min at 22°C to allow pre-binding of the test compounds to the enzyme before the start of the kinase reaction. Then the kinase reaction was started by the addition of 3 µL of a solution of adenosine-tri-phosphate (ATP, 16.7 µM => final conc. in the 5 µL assay volume is 10 µM) and substrate (0.1 µM => final conc. in the 5 µL assay volume is 0.06 µM) in assay buffer and the resulting mixture was incubated for a reaction time of 45 min at 22°C.
The resulting mixture was incubated for 1 h at 22°C to allow the formation of complex between the phosphorylated biotinylated peptide and the detection reagents. Subsequently the amount of phosphorylated substrate was evaluated by measurement of the resonance energy transfer from the Eu-chelate to the streptavidine-XL. Therefore, the fluorescence emissions at 620 nm and 665 nm after excitation at 350 nm were measured in a TR-FRET reader, e.g. a Rubystar (BMG Labtechnologies, Offenburg, Germany) or a Viewlux (Perkin-Elmer). The ratio of the emissions at 665 nm and at […] was taken as the measure for the amount of phosphorylated substrate. The data were normalised (enzyme reaction without inhibitor = 0 % inhibition, all other assay components but no enzyme = 100 % inhibition). […] Table 1: MKNK1 IC50s

MKNK1 [2] = target: T1, MKNK1; experiment: MKNK1 kinase high ATP assay (TR-FRET); format: biochemical; conditions: ATP final conc. 2 mM; 15 min pre-incubation; reaction time 30 min at 22°C
Experimental: MKNK1-inhibitory activity at high ATP of compounds of the present invention after their preincubation with MKNK1 was quantified employing the TR-FRET-based MKNK1 high ATP assay as described in the following paragraphs.
As substrate for the kinase reaction the biotinylated peptide biotin-Ahx-[…] (C-terminus in amide form) was used, which can be purchased e.g. from the company Biosyntan (Berlin-Buch, Germany).
For the assay 50 nL of a 100fold concentrated solution of the test compound in DMSO was pipetted into a black low volume 384well microtiter plate (Greiner Bio-One, Frickenhausen, Germany), 2 µL of a solution of MKNK1 in aqueous assay buffer [50 mM HEPES pH 7.5, 5 mM magnesium chloride, 1.0 mM dithiothreitol, 0.005% (v/v) Nonidet-P40 (Sigma)] was added and the mixture was incubated for 15 min at 22°C to allow pre-binding of the test compounds to the enzyme before the start of the kinase reaction. Then the kinase reaction was started by the addition of 3 µL of a solution of adenosine-tri-phosphate (ATP, 3.3 mM => final conc. in the 5 µL assay volume is 2 mM) and substrate (0.1 µM => final conc. in the 5 µL assay volume is 0.06 µM) in assay buffer and the resulting mixture was incubated for a reaction time of 30 min at 22°C. The concentration of MKNK1 was adjusted depending of the activity of the enzyme lot and was chosen appropriate to have the assay in the linear range, typical concentrations were in the range of 0.003 µg/mL. The reaction was stopped by the addition of 5 µL of a solution of TR-FRET detection reagents (5 nM streptavidine-XL665 [Cisbio Bioassays, Codolet, France] and 1 nM anti-ribosomal protein S6 (pSer236)-antibody from Invitrogen [# 44921G] and 1 nM LANCE EU-W1024 labeled ProteinG [Perkin-Elmer, product no. AD0071]) in an aqueous EDTA-solution (100 mM EDTA, 0.1 % (w/v) bovine serum albumin in 50 mM HEPES pH 7.5).
The resulting mixture was incubated for 1 h at 22°C to allow the formation of complex between the phosphorylated biotinylated peptide and the detection reagents. Subsequently the amount of phosphorylated substrate was evaluated by measurement of the resonance energy transfer from the Eu-chelate to the streptavidine-XL. Therefore, the fluorescence emissions at 620 nm and 665 nm after excitation at 350 nm were measured in a TR-FRET reader, e.g. a Rubystar (BMG Labtechnologies, Offenburg, Germany) or a Viewlux (Perkin-Elmer). The ratio of the emissions at 665 nm and at […] was taken as the measure for the amount of phosphorylated substrate. The data were normalised (enzyme reaction without inhibitor = 0 % inhibition, all other assay components but no enzyme = 100 % inhibition).

T1 sequence (Q9BUB5 1-424 isoform Q9BUB5-2 T344D): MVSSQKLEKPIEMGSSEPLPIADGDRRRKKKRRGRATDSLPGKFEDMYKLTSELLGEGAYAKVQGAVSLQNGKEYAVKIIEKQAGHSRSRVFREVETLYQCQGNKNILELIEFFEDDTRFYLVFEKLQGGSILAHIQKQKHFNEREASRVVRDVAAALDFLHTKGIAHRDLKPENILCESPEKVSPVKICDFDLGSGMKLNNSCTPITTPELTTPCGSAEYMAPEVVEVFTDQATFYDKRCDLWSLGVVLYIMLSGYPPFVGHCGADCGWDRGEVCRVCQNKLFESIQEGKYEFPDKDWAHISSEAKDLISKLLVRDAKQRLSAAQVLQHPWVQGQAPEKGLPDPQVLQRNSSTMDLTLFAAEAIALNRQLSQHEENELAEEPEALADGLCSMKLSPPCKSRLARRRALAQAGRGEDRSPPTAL

Row | Compound | IC50 (MKNK1 [1]) | IC50 (MKNK1 [2])
1 | 1-{[3-(1-Benzofuran-2-yl)imidazo[1,2-b]pyridazin-6-yl]oxy}-2-methylpropan-2-amine [Example 29] | 17 nM | 59 nM
2 | COc1cccc2oc(-c3cnc4ccc(OCCCCN)nn34)cc12 [Example 1, 4-{[3-(4-Methoxy-1-benzofuran-2-yl)imidazo[1,2-b]pyridazin-6-yl]oxy}butan-1-amine] | 3 nM | 5 nM
3 | N[C@H]1C[C@H](Oc2ccc3ncc(-c4cc5ccccc5o4)n3n2)C1 [Example 2, trans-3-{[3-(1-Benzofuran-2-yl)imidazo[1,2-b]pyridazin-6-yl]oxy}cyclobutan-amine] | 5 nM | 6 nM
4 | N[C@H]1C[C@@H](Oc2ccc3ncc(-c4cc5ccccc5o4)n3n2)C1 [Example 3, cis-3-{[3-(1-Benzofuran-2-yl)imidazo[1,2-b]pyridazin-6-yl]oxy}cyclobutan-amine] | 4 nM | 17 nM
5 | COc1cccc2oc(-c3cnc4ccc(OCCCN)nn34)cc12 [Example 4, 3-{[3-(4-Methoxy-1-benzofuran-2-yl)imidazo[1,2-b]pyridazin-6-yl]oxy}propan-1-amine] | 5 nM | 15 nM
6 | COc1cccc2oc(-c3cnc4ccc(OCCN)nn34)cc12 [Example 5, 2-{[3-(4-Methoxy-1-benzofuran-2-yl)imidazo[1,2-b]pyridazin-6-yl]oxy}ethan-amine] | 6 nM | 18 nM
7 | COc1ccc2oc(-c3cnc4ccc(OCCN)nn34)cc2c1 [Example 6, 2-{[3-(5-Methoxy-1-benzofuran-2-yl)imidazo[1,2-b]pyridazin-6-yl]oxy}ethan-amine] | 6 nM | 13 nM
8 | C[C@H](N)COc1ccc2ncc(-c3cc4ccccc4o3)n2n1 [Example 7, (2S)-1-{[3-(1-Benzofuran-2-yl)imidazo[1,2-b]pyridazin-6-yl]oxy}propan-2-amine] | 7 nM | 18 nM
9 | NCCCCOc1ccc2ncc(-c3cc4ccccc4o3)n2n1 [Example 8, 4-{[3-(1-Benzofuran-2-yl)imidazo[1,2-b]pyridazin-6-yl]oxy}butan-1-amine] | 7 nM | 17 nM
10 | COc1ccc2oc(-c3cnc4ccc(OCCCN)nn34)cc2c1 [Example 9, 3-{[3-(5-Methoxy-1-benzofuran-2-yl)imidazo[1,2-b]pyridazin-6-yl]oxy}propan-1-amine] | 7 nM | 22 nM
11 | NCCOCCOc1ccc2ncc(-c3cc4ccccc4o3)n2n1 [Example 21, 2-(2-{[3-(1-Benzofuran-2-yl)imidazo[1,2-b]pyridazin-6-yl]oxy}ethoxy)ethan-amine] | – | 14 nM
12 | N[C@@H]1CCCC[C@H]1Oc1ccc2ncc(-c3cc4ccccc4o3)n2n1 [Example 23, (1R,2R)-2-{[3-(1-Benzofuran-2-yl)imidazo[1,2-b]pyridazin-6-yl]oxy}cyclohexan-amine] | – | 18 nM
13 | NC1(COc2ccc3ncc(-c4cc5ccccc5o4)n3n2)CCC1 [Example 27, 1-({[3-(1-Benzofuran-2-yl)imidazo[1,2-b]pyridazin-6-yl]oxy}methyl)cyclobutan-amine] | – | 29 nM
14 | C=CCCC(CN)Oc1ccc2ncc(-c3cc4ccccc4o3)n2n1 (centres unmarked) [Example 28, 2-{[3-(1-Benzofuran-2-yl)imidazo[1,2-b]pyridazin-6-yl]oxy}hex-5-en-1-amine] | – | 45 nM
15 | NCC(CN1CCOCC1)Oc1ccc2ncc(-c3cc4ccccc4o3)n2n1 (centres unmarked) [Example 31, 2-{[3-(1-Benzofuran-2-yl)imidazo[1,2-b]pyridazin-6-yl]oxy}-3-(morpholin-4-yl)-propan-1-amine] | – | 78 nM
16 | NC(COc1ccc2ncc(-c3cc4ccccc4o3)n2n1)C1CCOCC1 (centres unmarked) [Example 32, 2-{[3-(1-Benzofuran-2-yl)imidazo[1,2-b]pyridazin-6-yl]oxy}-1-(tetrahydro-2H-pyran-4-yl)ethanamine] | – | 79 nM
17 | NCC(Cc1ccc(F)cc1)Oc1ccc2ncc(-c3cc4ccccc4o3)n2n1 (centres unmarked) [Example 53, 2-{[3-(1-Benzofuran-2-yl)imidazo[1,2-b]pyridazin-6-yl]oxy}-3-(4-fluorophenyl)-propan-1-amine] | – | 46 nM
18 | NCC(Cc1ccncc1)Oc1ccc2ncc(-c3cc4ccccc4o3)n2n1 (centres unmarked) [Example 54, 2-{[3-(1-Benzofuran-2-yl)imidazo[1,2-b]pyridazin-6-yl]oxy}-3-(pyridin-4-yl)-propan-1-amine] | – | 19 nM
19 | NC[C@H](Oc1ccc2ncc(-c3cc4ccccc4o3)n2n1)c1cccnc1 [Example 55, (2R)-2-{[3-(1-benzofuran-2-yl)imidazo[1,2-b]pyridazin-6-yl]oxy}-2-(pyridin-3-yl)ethanamine] | 16 nM | –
20 | NCC(Oc1ccc2ncc(-c3cc4ccccc4o3)n2n1)c1ccc(F)cc1 (centres unmarked) [Example 56, 2-{[3-(1-benzofuran-2-yl)-imidazo-[1,2-b]-pyridazin-6-yl]oxy}-2-(4-fluorophenyl)-ethanamine] | 40 nM | –
21 | NCC(Oc1ccc2ncc(-c3cc4ccccc4o3)n2n1)c1ccccn1 (centres unmarked) [Example 57, 2-{[3-(1-benzofuran-2-yl)-imidazo-[1,2-b]-pyridazin-6-yl]oxy}-2-(pyridin-2-yl)-ethanamine] | 94 nM | –
22 | CC(C)Oc1cccc(C(CN)Oc2ccc3ncc(-c4cc5ccccc5o4)n3n2)c1 (centres unmarked) [Example 58, 2-{[3-(1-benzofuran-2-yl)-imidazo-[1,2-b]-pyridazin-6-yl]oxy}-2-(3-iso-propoxyphenyl)-ethanamine] | 20 nM | –
23 | NCC(Oc1ccc2ncc(-c3cc4ccccc4o3)n2n1)c1cccc(C(F)(F)F)c1 (centres unmarked) [Example 59, 2-{[3-(1-benzofuran-2-yl)-imidazo-[1,2-b]-pyridazin-6-yl]oxy}-2-[3-(trifluoromethyl)-phenyl]-ethanamine] | 37 nM | –
24 | NCC(Oc1ccc2ncc(-c3cc4ccccc4o3)n2n1)c1ccc(F)cc1F (centres unmarked) [Example 60, 2-{[3-(1-benzofuran-2-yl)-imidazo-[1,2-b]-pyridazin-6-yl]oxy}-2-(2,4-difluorophenyl)-ethanamine] | 39 nM | –
25 | N[C@H](COc1ccc2ncc(-c3cc4ccccc4o3)n2n1)c1ccc(F)cc1 [Example 61, (1S)-2-{[3-(1-benzofuran-2-yl)imidazo[1,2-b]pyridazin-6-yl]oxy}-1-(4-fluorophenyl)ethanamine] | 29 nM | –
26 | N[C@H](COc1ccc2ncc(-c3cc4ccccc4o3)n2n1)c1ccc(Cl)cc1 [Example 62, (1S)-2-{[3-(1-benzofuran-2-yl)imidazo[1,2-b]pyridazin-6-yl]oxy}-1-(4-chlorophenyl)ethanamine] | 31 nM | –
27 | NC(COc1ccc2ncc(-c3cc4ccccc4o3)n2n1)c1cccnc1 (centres unmarked) [Example 63, 2-{[3-(1-benzofuran-2-yl)imidazo[1,2-b]pyridazin-6-yl]oxy}-1-(pyridin-3-yl)ethanamine] | 54 nM | –
28 | NCCC(Oc1ccc2ncc(-c3cc4ccccc4o3)n2n1)c1ccc(F)cc1 (centres unmarked) [Example 64] | 57 nM | –
